Data taken from ChEMBL document CHEMBL1131894, “N-phenylalkyl-substituted tropane analogs of boat conformation with high selectivity for the dopamine versus serotonin transporter” (Bioorg Med Chem Lett, 1999).

Experiments:
[1] = biological target: T1, Sodium-dependent dopamine transporter (Rattus norvegicus, UniProt P23977); experiment: Inhibition of [3H]dopamine uptake at striatal nerve endings by dopamine transporter
[2] = biological target: T1, Sodium-dependent dopamine transporter; experiment: Displacement of [3H]mazindol from cocaine binding site on Dopamine transporter (DAT)
[3] = biological target: Sodium-dependent serotonin transporter (Rattus norvegicus, UniProt P31652); experiment: Inhibition of [3H]5-HT uptake at striatal nerve endings by serotonin transporter
Sequence of Sodium-dependent serotonin transporter (P31652 whole entry): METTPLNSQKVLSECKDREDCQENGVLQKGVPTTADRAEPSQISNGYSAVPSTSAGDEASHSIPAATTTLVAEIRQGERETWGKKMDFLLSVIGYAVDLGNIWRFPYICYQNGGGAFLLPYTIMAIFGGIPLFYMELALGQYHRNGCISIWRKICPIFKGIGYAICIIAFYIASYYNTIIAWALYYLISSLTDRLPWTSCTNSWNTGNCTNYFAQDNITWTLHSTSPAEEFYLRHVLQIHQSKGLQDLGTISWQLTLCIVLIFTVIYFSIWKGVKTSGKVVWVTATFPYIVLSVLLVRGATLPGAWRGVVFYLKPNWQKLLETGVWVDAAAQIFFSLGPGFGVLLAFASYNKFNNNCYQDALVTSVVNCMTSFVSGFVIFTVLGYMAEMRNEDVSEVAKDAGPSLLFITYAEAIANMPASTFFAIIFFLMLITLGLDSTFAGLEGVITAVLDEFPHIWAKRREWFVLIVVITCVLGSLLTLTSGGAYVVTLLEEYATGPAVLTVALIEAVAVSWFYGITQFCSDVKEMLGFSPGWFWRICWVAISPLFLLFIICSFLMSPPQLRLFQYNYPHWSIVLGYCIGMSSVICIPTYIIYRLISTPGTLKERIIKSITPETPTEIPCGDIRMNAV

[4] = Selectivity of uptake of 5-HT to DA; type: functional

T1 sequence (P23977 whole entry): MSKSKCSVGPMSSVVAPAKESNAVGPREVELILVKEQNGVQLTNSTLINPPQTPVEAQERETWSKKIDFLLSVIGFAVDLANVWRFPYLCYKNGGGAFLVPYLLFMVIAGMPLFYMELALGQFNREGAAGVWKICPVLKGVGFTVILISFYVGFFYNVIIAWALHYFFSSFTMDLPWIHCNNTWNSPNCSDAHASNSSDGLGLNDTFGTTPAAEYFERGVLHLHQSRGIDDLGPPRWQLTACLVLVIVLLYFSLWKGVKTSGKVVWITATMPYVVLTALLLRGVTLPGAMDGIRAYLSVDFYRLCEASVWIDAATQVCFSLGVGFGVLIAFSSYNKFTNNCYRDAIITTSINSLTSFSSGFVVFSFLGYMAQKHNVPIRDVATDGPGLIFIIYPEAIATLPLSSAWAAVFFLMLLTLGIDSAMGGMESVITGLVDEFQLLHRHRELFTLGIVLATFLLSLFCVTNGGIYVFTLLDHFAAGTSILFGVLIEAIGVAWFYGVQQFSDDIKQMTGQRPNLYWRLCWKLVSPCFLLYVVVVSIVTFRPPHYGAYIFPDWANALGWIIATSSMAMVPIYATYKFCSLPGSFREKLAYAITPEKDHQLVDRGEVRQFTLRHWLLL

Structure (SMILES): Fc1ccc(C2C3CCC(C[C@H]2c2ccc(F)cc2)N3)cc1 (some centres undefined)
- Ki [1]: 17 nM
- Ki [2]: 49 nM
- Ki [3]: 41 nM
- Selectivity [4]: 2.4

Structure (SMILES): Fc1ccc(C2C3CC[C@H](C[C@H]2c2ccc(F)cc2)N3CCCCc2ccccc2)cc1 (some centres undefined)
- Ki [1]: 210 nM
- Ki [2]: 86.4 nM
- Ki [3]: 110 nM
- Selectivity [4]: 0.52

Structure (SMILES): Fc1ccc(OCCN2C3CC[C@@H]2C[C@@H](c2ccc(F)cc2)C3c2ccc(F)cc2)cc1 (some centres undefined)
- Ki [1]: 27 nM
- Ki [2]: 22 nM
- Ki [3]: 928 nM
- Selectivity [4]: 34

Structure (SMILES): Fc1ccc(C2C3CC[C@H](C[C@H]2c2ccc(F)cc2)N3Cc2ccccc2)cc1 (some centres undefined)
- Ki [1]: 170 nM
- Ki [2]: 260 nM
- Ki [3]: 490 nM
- Selectivity [4]: 2.9

Structure (SMILES): Fc1ccc(C2C3CC[C@H](C[C@H]2c2ccc(F)cc2)N3CCCc2ccccc2)cc1 (some centres undefined)
- Ki [1]: 43 nM
- Ki [2]: 16 nM
- Ki [3]: 608 nM
- Selectivity [4]: 14

Structure (SMILES): Fc1ccc(C2C3CC[C@H](C[C@H]2c2ccc(F)cc2)N3CCc2ccccc2)cc1 (some centres undefined)
- Ki [1]: 26 nM
- Ki [2]: 10 nM
- Ki [3]: > 1.3 nM
- Selectivity [4]: > 50

Structure (SMILES): Cc1ccc([C@@H]2C[C@H]3CCC(C2c2ccccc2)N3C)cc1 (some centres undefined)
- Ki [1]: 4.6 nM
- Ki [2]: 6 nM
- Ki [3]: 120 nM
- Selectivity [4]: 26

Structure (SMILES): Fc1ccc(C2C3CC[C@H](C[C@H]2c2ccc(F)cc2)N3CCC(c2ccccc2)c2ccccc2)cc1 (some centres undefined)
- Ki [1]: > 10000 nM
- Ki [2]: > 7000 nM
- Ki [3]: > 20000 nM

Structure (SMILES): Cc1ccc([C@@H]2C[C@H]3CCC(C2c2ccccc2)N3CCc2ccccc2)cc1 (some centres undefined)
- Ki [1]: 1.6 nM
- Ki [2]: 0.95 nM
- Ki [3]: 180 nM
- Selectivity [4]: 113

Structure (SMILES): CN1C2CC[C@@H]1C[C@@H](c1ccc(F)cc1)C2c1ccc(F)cc1 (some centres undefined)
- Ki [1]: 14 nM
- Ki [2]: 31 nM
- Ki [3]: 460 nM
- Selectivity [4]: 33
